Measured values from the OligoGym collection.
HELM strings list units from the 5' end as sugar, base in round brackets, then linkage (d deoxyribose, r ribose, m 2'-O-methyl, p phosphodiester). Strings are as the collection lists them; they lack the last nucleoside at the 3' end of the tested compound. [moe] = 2'-O-(2-methoxyethyl) (MOE); [sp] = phosphorothioate linkage; [m5C] = 5-methylcytosine

What follows are substances tested against APP (assay: mouse, dose not given). Conditions: ASO.

First: RNA1{[moe](A)[sp].[moe](A)p.[moe](A)p.[moe]([m5C])p.[moe](T)[sp].d([m5C])[sp].d(T)[sp].d(A)[sp].d([m5C])[sp].d([m5C])[sp].d([m5C])[sp].d([m5C])[sp].d(T)[sp].d([m5C])[sp].d(G)[sp].[moe](G)p.[moe](A)p.[moe](A)[sp].[moe]([m5C])}$$$$ (last 3' nucleoside missing)
Second: RNA1{[moe](A)[sp].[moe](A)p.[moe](G)p.[moe](G)p.[moe](G)[sp].d([m5C])[sp].d(A)[sp].d(T)[sp].d([m5C])[sp].d(A)[sp].d([m5C])[sp].d(T)[sp].d(T)[sp].d(A)[sp].d([m5C])[sp].[moe](A)p.[moe](A)p.[moe](A)[sp].[moe]([m5C])}$$$$ (last 3' nucleoside missing)
The 3 h FOB score of the first is higher: 1 score 0-7 for the first, 0 score 0-7 for the second.

Going from “RNA1{[moe](A)[sp].[moe](A)p.[moe](G)p.[moe](G)p.[moe]([m5C])[sp].d(A)[sp].d(T)[sp].d(G)[sp].d([m5C])[sp].d(A)[sp].d(T)[sp].d(T)[sp].d(T)[sp].d(T)[sp].d(T)[sp].[moe](A)p.[moe](G)p.[moe](G)[sp].[moe](G)}$$$$ (last 3' nucleoside missing)” to “RNA1{[moe](A)[sp].[moe](A)p.[moe](G)p.[moe]([m5C])p.[moe](T)[sp].d(T)[sp].d(A)[sp].d([m5C])[sp].d(A)[sp].d(T)[sp].d([m5C])[sp].d(A)[sp].d(T)[sp].d(T)[sp].d(T)[sp].[moe](T)p.[moe]([m5C])p.[moe](T)[sp].[moe](T)}$$$$ (last 3' nucleoside missing)”, the 3 h FOB score falls from 1.67 score 0-7 to 1.33 score 0-7.

Going from “RNA1{[moe](A)[sp].[moe](A)p.[moe]([m5C])p.[moe](T)p.[moe]([m5C])[sp].d(G)[sp].d(A)[sp].d(A)[sp].d([m5C])[sp].d([m5C])[sp].d(A)[sp].d([m5C])[sp].d([m5C])[sp].d(T)[sp].d([m5C])[sp].[moe](T)p.[moe](T)p.[moe]([m5C])[sp].[moe]([m5C])}$$$$ (last 3' nucleoside missing)” to “RNA1{[moe](A)[sp].[moe](G)p.[moe](A)p.[moe](T)p.[moe](A)[sp].d([m5C])[sp].d(T)[sp].d(T)[sp].d(G)[sp].d(T)[sp].d([m5C])[sp].d(A)[sp].d(A)[sp].d([m5C])[sp].d(G)[sp].[moe](G)p.[moe]([m5C])p.[moe](A)[sp].[moe](T)}$$$$ (last 3' nucleoside missing)”, the 3 h FOB score rises from 0 score 0-7 to 2.33 score 0-7.

“RNA1{[moe](A)[sp].[moe](G)p.[moe](G)p.[moe](A)p.[moe](A)[sp].d([m5C])[sp].d(T)[sp].d([m5C])[sp].d(G)[sp].d(A)[sp].d(A)[sp].d([m5C])[sp].d([m5C])[sp].d(A)[sp].d([m5C])[sp].[moe]([m5C])p.[moe](T)p.[moe]([m5C])[sp].[moe](T)}$$$$ (last 3' nucleoside missing)” and “RNA1{[moe](A)[sp].[moe](G)p.[moe](G)p.[moe](A)p.[moe]([m5C])[sp].d(A)[sp].d(T)[sp].d(T)[sp].d([m5C])[sp].d(A)[sp].d(T)[sp].d(T)[sp].d(T)[sp].d(T)[sp].d(T)[sp].[moe](G)p.[moe](A)p.[moe]([m5C])[sp].[moe]([m5C])}$$$$ (last 3' nucleoside missing)” are the same in 3 h FOB score: 1 score 0-7 for the first, 1 score 0-7 for the second.

Compared with “RNA1{[moe](A)[sp].[moe](G)p.[moe](G)p.[moe](T)p.[moe]([m5C])[sp].d(T)[sp].d([m5C])[sp].d(T)[sp].d(A)[sp].d(T)[sp].d(A)[sp].d(T)[sp].d(T)[sp].d(T)[sp].d(T)[sp].[moe](G)p.[moe](G)p.[moe](T)[sp].[moe]([m5C])}$$$$ (last 3' nucleoside missing)”, “RNA1{[moe](A)[sp].[moe](G)p.[moe](T)p.[moe](A)p.[moe]([m5C])[sp].d(A)[sp].d(T)[sp].d(A)[sp].d(T)[sp].d(T)[sp].d([m5C])[sp].d(A)[sp].d(T)[sp].d(T)[sp].d([m5C])[sp].[moe](A)p.[moe](A)p.[moe](T)[sp].[moe]([m5C])}$$$$ (last 3' nucleoside missing)” is lower in 3 h FOB score: 0.33 score 0-7 for the first, 0 score 0-7 for the second.

First: RNA1{[moe](A)[sp].[moe](G)p.[moe]([m5C])p.[moe](A)p.[moe](T)[sp].d([m5C])[sp].d(T)[sp].d(T)[sp].d(T)[sp].d(T)[sp].d(A)[sp].d([m5C])[sp].d(T)[sp].d(A)[sp].d(T)[sp].[moe]([m5C])p.[moe](T)p.[moe](G)[sp].[moe]([m5C])}$$$$ (last 3' nucleoside missing)
Second: RNA1{[moe](A)[sp].[moe](G)p.[moe]([m5C])p.[moe](T)p.[moe](T)[sp].d(A)[sp].d([m5C])[sp].d(A)[sp].d(T)[sp].d([m5C])[sp].d(A)[sp].d(T)[sp].d(T)[sp].d(T)[sp].d(T)[sp].[moe]([m5C])p.[moe](T)p.[moe](T)[sp].[moe](G)}$$$$ (last 3' nucleoside missing)
The 3 h FOB score of the first is lower: 0.67 score 0-7 for the first, 1 score 0-7 for the second.

“RNA1{[moe](A)[sp].[moe](T)p.[moe](A)p.[moe](T)p.[moe](T)p.[moe](T)p.d(G)[sp].d(T)[sp].d([m5C])[sp].d(A)[sp].d(A)[sp].d([m5C])[sp].d([m5C])[sp].d([m5C])[sp].d(A)[sp].d(G)[sp].[moe](A)p.[moe](A)[sp].[moe]([m5C])}$$$$ (last 3' nucleoside missing)” and “RNA1{[moe](A)[sp].[moe](T)p.[moe](G)p.[moe](G)p.[moe](A)[sp].d(T)[sp].d([m5C])[sp].d(T)[sp].d(G)[sp].d(A)[sp].d(A)[sp].d(T)[sp].d([m5C])[sp].d([m5C])[sp].d([m5C])[sp].[moe](A)p.[moe]([m5C])p.[moe](T)[sp].[moe](T)}$$$$ (last 3' nucleoside missing)” are the same in 3 h FOB score: 1 score 0-7 for the first, 1 score 0-7 for the second.

“RNA1{[moe](A)[sp].[moe](T)p.[moe](G)p.[moe](T)p.[moe](G)[sp].d(A)[sp].d(T)[sp].d(T)[sp].d(T)[sp].d([m5C])[sp].d(A)[sp].d([m5C])[sp].d(T)[sp].d(A)[sp].d(A)[sp].[moe]([m5C])p.[moe]([m5C])p.[moe](G)[sp].[moe](G)}$$$$ (last 3' nucleoside missing)” and “RNA1{[moe](A)[sp].[moe](T)p.[moe](G)p.[moe](T)p.[moe](G)p.[moe](A)[sp].d(T)[sp].d(T)[sp].d(T)[sp].d([m5C])[sp].d(A)[sp].d([m5C])[sp].d(T)[sp].d(A)[sp].d(A)[sp].d([m5C])[sp].[moe]([m5C])p.[moe](G)[sp].[moe](G)}$$$$ (last 3' nucleoside missing)” are the same in 3 h FOB score: 0 score 0-7 for the first, 0 score 0-7 for the second.

Compared with “RNA1{[moe](A)[sp].[moe](T)p.[moe](G)p.[moe](T)p.[moe](T)[sp].d([m5C])[sp].d(A)[sp].d(T)[sp].d(T)[sp].d([m5C])[sp].d(T)[sp].d([m5C])[sp].d(A)[sp].d(T)[sp].d([m5C])[sp].[moe]([m5C])p.[moe]([m5C])p.[moe]([m5C])[sp].[moe](A)}$$$$ (last 3' nucleoside missing)”, “RNA1{[moe](A)[sp].[moe](T)p.[moe](G)p.[moe]([m5C])p.[moe](A)[sp].d(T)[sp].d([m5C])[sp].d(A)[sp].d(A)[sp].d(T)[sp].d(T)[sp].d([m5C])[sp].d([m5C])[sp].d(T)[sp].d(T)[sp].[moe](T)p.[moe](G)p.[moe](G)[sp].[moe](G)}$$$$ (last 3' nucleoside missing)” is lower in 3 h FOB score: 1 score 0-7 for the first, 0 score 0-7 for the second.

Going from “RNA1{[moe](A)[sp].[moe](T)p.[moe](T)p.[moe]([m5C])p.[moe](T)[sp].d(G)[sp].d(G)[sp].d(A)[sp].d([m5C])[sp].d(A)[sp].d(T)[sp].d(T)[sp].d([m5C])[sp].d(A)[sp].d(T)[sp].[moe](G)p.[moe](T)p.[moe](G)[sp].[moe]([m5C])}$$$$ (last 3' nucleoside missing)” to “RNA1{[moe](A)[sp].[moe](T)p.[moe](T)p.[moe]([m5C])p.[moe](T)[sp].d([m5C])[sp].d(T)[sp].d(T)[sp].d(A)[sp].d(T)[sp].d(A)[sp].d(T)[sp].d(T)[sp].d([m5C])[sp].d([m5C])[sp].[moe](T)p.[moe](T)p.[moe](A)[sp].[moe]([m5C])}$$$$ (last 3' nucleoside missing)”, the 3 h FOB score falls from 1 score 0-7 to 0.5 score 0-7.

Compared with “RNA1{[moe](A)[sp].[moe](T)p.[moe]([m5C])p.[moe](A)p.[moe]([m5C])[sp].d([m5C])[sp].d(A)[sp].d(G)[sp].d(T)[sp].d(T)[sp].d(T)[sp].d([m5C])[sp].d(A)[sp].d(T)[sp].d(A)[sp].[moe]([m5C])p.[moe](A)p.[moe]([m5C])[sp].[moe](T)}$$$$ (last 3' nucleoside missing)”, “RNA1{[moe](A)[sp].[moe]([m5C])p.[moe](A)p.[moe](T)p.[moe](T)[sp].d(A)[sp].d(T)[sp].d(T)[sp].d([m5C])[sp].d(T)[sp].d(A)[sp].d(T)[sp].d(A)[sp].d(A)[sp].d(A)[sp].[moe](T)p.[moe](G)p.[moe](G)[sp].[moe](A)}$$$$ (last 3' nucleoside missing)” is lower in 3 h FOB score: 0.25 score 0-7 for the first, 0 score 0-7 for the second.

First: RNA1{[moe](A)[sp].[moe]([m5C])p.[moe](A)p.[moe](T)p.[moe]([m5C])[sp].d(A)[sp].d(T)[sp].d(A)[sp].d(T)[sp].d(T)[sp].d([m5C])[sp].d(T)[sp].d(T)[sp].d(A)[sp].d([m5C])[sp].[moe](T)p.[moe](G)p.[moe](T)[sp].[moe](T)}$$$$ (last 3' nucleoside missing)
Second: RNA1{[moe](A)[sp].[moe]([m5C])p.[moe](A)p.[moe]([m5C])p.[moe](A)[sp].d([m5C])[sp].d(A)[sp].d(A)[sp].d(A)[sp].d([m5C])[sp].d(T)[sp].d([m5C])[sp].d(T)[sp].d(A)[sp].d([m5C])[sp].[moe]([m5C])p.[moe]([m5C])p.[moe]([m5C])[sp].[moe](T)}$$$$ (last 3' nucleoside missing)
The 3 h FOB score of the first is lower: 0 score 0-7 for the first, 0.5 score 0-7 for the second.

Going from “RNA1{[moe](A)[sp].[moe]([m5C])p.[moe](A)p.[moe]([m5C])p.[moe]([m5C])[sp].d(G)[sp].d([m5C])[sp].d([m5C])[sp].d([m5C])[sp].d(A)[sp].d([m5C])[sp].d([m5C])[sp].d(A)[sp].d(T)[sp].d(G)[sp].[moe](A)p.[moe](G)p.[moe](T)[sp].[moe]([m5C])}$$$$ (last 3' nucleoside missing)” to “RNA1{[moe](A)[sp].[moe]([m5C])p.[moe](G)p.[moe](G)p.[moe](A)[sp].d([m5C])[sp].d(T)[sp].d(T)[sp].d(T)[sp].d(T)[sp].d(T)[sp].d(T)[sp].d([m5C])[sp].d(T)[sp].d(T)[sp].[moe]([m5C])p.[moe](T)p.[moe](T)[sp].[moe](G)}$$$$ (last 3' nucleoside missing)”, the 3 h FOB score falls from 1 score 0-7 to 0 score 0-7.
